Consider eight compounds from ChEMBL document CHEMBL5543069, “DW71177: A novel [1,2,4]triazolo[4,3-a]quinoxaline-based potent and BD1-Selective BET inhibitor for the treatment of acute myeloid leukemia” (Eur J Med Chem, 2024).

Structures are written as SMILES.

Data set [1] has as its target T1, Bromodomain-containing protein 4 (Homo sapiens, UniProt O60885). Nature of the data set: Binding affinity to human BRD4 BD2 expressed in Escherichia coli BL21 (DE3) assessed as dissociation constant by bromodomain analysis.
The subject of data set [2] is Ty-82. Nature of the data set: Cytotoxicity against human Ty-82 cells assessed as growth inhibition incubated for 72 hrs by WST-1 assay. The note with it: TY82, 72 h. In general terms: Tetrazolium dyes change colour on reduction, which living cells bring about.
For data set [3], the target named is T1, Bromodomain-containing protein 4. Nature of the data set: Binding affinity to human BRD4 BD1 expressed in Escherichia coli BL21 (DE3) assessed as dissociation constant by bromodomain analysis.
Data set [4] can be described thus: in vivo. The note with it: rat, po, 5 mg/kg.
Description: AUC (0 to t) in rat at 5 mg/kg, po
Data set [5] concerns MV4-11. Nature of the data set: Cytotoxicity against human MV4-11 cells assessed as growth inhibition incubated for 72 hrs by WST-1 assay. The note with it: MV4-11, 72 h.
Data set [6] can be described thus: in vivo. The conditions noted are these: rat, po, 5 mg/kg. The source holds these as a separate data set.
Description: Cmax in rat at 5 mg/kg, po
Data set [7] can be described thus: in vivo. The note with it: rat, po, 5 mg/kg. The source holds these as a separate data set.
Description: Tmax in rat at 5 mg/kg, po
Data set [8] is described as follows: in vivo. The note with it: rat, po, 5 mg/kg. The source holds these as a separate data set.
Description: AUC (0 to infinity) in rat at 5 mg/kg, po
A short description of data set [9]: Half life in rat at 5 mg/kg, po. The conditions noted are these: in vivo.
The target of data set [10] is T1, Bromodomain-containing protein 4. Nature of the data set: Binding affinity to human BRD4 BD2 expressed in Escherichia coli BL21 (DE3) assessed as dissociation constant by ITC analysis. On the technique in general: Isothermal titration calorimetry measures the heat released or taken up as one component is titrated into another.
Data set [11] shares this target. Nature of the data set: Binding affinity to human BRD4 BD1 expressed in Escherichia coli BL21 (DE3) assessed as dissociation constant by ITC analysis.
The subject of data set [12] is T-24. Nature of the data set: Antiproliferative activity against human T24 cells assessed as growth inhibition incubated for 72 hrs by WST-1 assay. The note with it: T-24, 72 h.
Data set [13] has as its system Raji. Nature of the data set: Antiproliferative activity against human Raji cells assessed as growth inhibition incubated for 72 hrs by WST-1 assay.
In data set [14] the test system is Daudi. Nature of the data set: Antiproliferative activity against human Daudi cells assessed as growth inhibition incubated for 72 hrs by WST-1 assay.
A short description of data set [15]: Antiproliferative activity against human SNU-2535 cells assessed as growth inhibition incubated for 72 hrs by WST-1 assay. The conditions noted are these: SNU-2535, 72 h.
Data set [16] deals with KU-19-19. Nature of the data set: Antiproliferative activity against human KU-19-19 cells assessed as growth inhibition incubated for 72 hrs by WST-1 assay. The conditions noted are these: KU-19-19, 72 h.
The subject of data set [17] is U2932. Nature of the data set: Antiproliferative activity against human U2932 cells assessed as growth inhibition incubated for 72 hrs by WST-1 assay. The conditions noted are these: U2932, 72 h.
The test system of data set [18] is LS-1034. Nature of the data set: Antiproliferative activity against human LS1034 cells assessed as growth inhibition incubated for 72 hrs by WST-1 assay. The note with it: LS-1034, 72 h.
For data set [19], the system named is NCI-H1666. Nature of the data set: Antiproliferative activity against human NCI-H1666 cells assessed as growth inhibition incubated for 72 hrs by WST-1 assay. The note with it: NCI-H1666, 72 h.
In data set [20] the test system is Pfeiffer. Nature of the data set: Antiproliferative activity against human Pfeiffer cells assessed as growth inhibition incubated for 72 hrs by WST-1 assay.
For data set [21], the system named is NCI-H1975. Nature of the data set: Antiproliferative activity against human NCI-H1975 cells assessed as growth inhibition incubated for 72 hrs by WST-1 assay. The note with it: NCI-H1975, 72 h.
Data set [22] has as its system MOLT-4. Nature of the data set: Antiproliferative activity against human MOLT-4 cells assessed as growth inhibition incubated for 72 hrs by WST-1 assay. The conditions noted are these: MOLT-4, 72 h.
Data set [23] has as its system BJAB. Nature of the data set: Antiproliferative activity against human BJAB cells assessed as growth inhibition incubated for 72 hrs by WST-1 assay.
Data set [24] has as its system SUD4. Nature of the data set: Antiproliferative activity against human SU-DHL-4 cells assessed as growth inhibition incubated for 72 hrs by WST-1 assay. The conditions noted are these: SU-DHL-4, 72 h.
The subject of data set [25] is K562. Nature of the data set: Antiproliferative activity against human K562 cells assessed as growth inhibition incubated for 72 hrs by WST-1 assay. The conditions noted are these: K562, 72 h.
Data set [26] has as its system THP-1. Nature of the data set: Antiproliferative activity against human THP-1 cells assessed as growth inhibition incubated for 72 hrs by WST-1 assay. The note with it: THP-1, 72 h.

By Kd is commonly meant the concentration at which binding is half-saturated. Broadly, the GI50 is the concentration that inhibits growth by half. Take `Cc1nnc2c(NCCCCNC(=O)c3ccccc3Cl)nc3ccccc3n12`: the results for the Kd in data set [1] and in data set [3] were 110 nM and 32 nM, respectively. Moreover, the GI50 in data set [2] came out at 9600 nM.
The AUC(0-t) is the area under the concentration-time curve up to a stated or last time point. Low readings indicate less exposure, high ones more exposure. What is called Cmax is the peak of the concentration-time curve. Broadly, the Tmax is the time at which the peak concentration occurs. A word on the AUC(0-inf): it is the area under the concentration-time curve extrapolated to infinity. A high value points to high exposure. For orientation: half-life means the time needed for the level to fall by half in the phase considered. Read a low half-life as rapid decline. On to `Cc1nnc2c(NCCCCNC(=O)OC(C)(C)C)nc3ccccc3n12`, for which the AUC(0-t) in data set [4] amounted to 574 ng·h/mL. The figures for the GI50 in [5] and in data set [2] were 980 nM and 1000 nM, respectively. In addition, the concentration in data set [6] peaked (Cmax) at 180 ng/mL. In addition, the Kd is 190 nM in data set [1] and 40 nM in [3]. The Tmax in [7] was 40 min. The same compound registered an AUC(0-inf) in data set [8] of 851 ng·h/mL. Also, the half-life in data set [9] was 211 min.
Regarding `Cc1nnc2c(NCCCCNC(=O)OC(C)(C)C)nc3cc(C(=O)O)ccc3n12`, the Kd in data set [1] worked out at 220 nM; in data set [3], 36 nM. In [2], the GI50 was 650 nM.
Regarding `COc1ccc2c(c1)nc(OCCCCNC(=O)CC(C)C)c1nnc(C)n12`, the concentration for 50% growth inhibition (GI50) in data set [5] and in data set [2] was over 10000 nM in each case. For the same compound, the Kd in [1] and in [3] was over 5000 nM in each case.
Regarding `Cc1nnc2c(NCCCCCCNC(=O)OC(C)(C)C)nc3ccccc3n12`, the Kd in data set [1] and in [3] was over 5000 nM each time. Besides, the GI50 in [2] was over 10000 nM.
Regarding `Cc1nnc2c(NCCCCNC(=O)c3ccccc3)nc3ccccc3n12`, the GI50 in data set [5] is 790 nM; in data set [2], 950 nM. For the same compound, the Kd in [1] amounted to 180 nM; in data set [3] it was 29 nM.
Regarding `COc1ccc2c(c1)nc(NCCCCNC(=O)CC(C)C)c1nnc(C)n12`, the figures for the Kd in data set [10] and in [11] were 293 nM and 6.7 nM, respectively.
`Cc1sc2c(c1C)C(c1ccc(Cl)cc1)=N[C@@H](CC(=O)Nc1ccc(O)cc1)c1nnc(C)n1-2` [BIRABRESIB]: the GI50 was 7.9 µM in [12]; over 10 µM in data set [13]; 30 nM in data set [5]; 4 µM in data set [14]; over 10 µM in data set [15]; over 10 µM in [16]. Besides, the GI50 in data set [17] is over 10 µM; in [18], over 10 µM; in data set [19] it was over 10 µM; in data set [20], 210 nM; in data set [21] it was over 10 µM; in [2], 67 nM. For the same compound, the GI50 is over 10 µM in [22]; 130 nM in [23]; 2800 nM in [24]; over 10 µM in [25]; 40 nM in data set [26].
